Assay results: ChEMBL document CHEMBL4339214, “Design, synthesis and biological activity of deuterium-based FFA1 agonists with improved pharmacokinetic profiles” (Bioorg Med Chem Lett, 2019)
The source made the active and inactive calls. No cut-off for these calls is given here.

Tests used:
[1] = Half life in 12 hrs fasted Sprague-Dawley rat at 3 mg/kg, po administered as single dose measured up to 24 hrs by LC-PDA-MS/MS analysis; format: ADME, organism-based; details: in vivo
[2] = AUC (0 to 24 hrs) in 12 hrs fasted Sprague-Dawley rat at 3 mg/kg, po administered as single dose measured up to 24 hrs by LC-PDA-MS/MS analysis; format: ADME, organism-based; design: time < 24 hr, dose 3 mg/kg, route oral; details: in vivo
[3] = Cmax in 12 hrs fasted Sprague-Dawley rat at 3 mg/kg, po administered as single dose measured up to 24 hrs by LC-PDA-MS/MS analysis; format: ADME, organism-based; design: dose 3 mg/kg, route oral; details: in vivo
[4] = target: Free fatty acid receptor 1 (Homo sapiens, UniProt O14842); test: Agonist activity at human FFA1 receptor expressed in CHO cells assessed as increase in intracellular calcium levels measured for 1 hr by Fluo 4-AM dye based FLIPR assay; format: functional, cell-based
Sequence of Free fatty acid receptor 1 (O14842 whole entry): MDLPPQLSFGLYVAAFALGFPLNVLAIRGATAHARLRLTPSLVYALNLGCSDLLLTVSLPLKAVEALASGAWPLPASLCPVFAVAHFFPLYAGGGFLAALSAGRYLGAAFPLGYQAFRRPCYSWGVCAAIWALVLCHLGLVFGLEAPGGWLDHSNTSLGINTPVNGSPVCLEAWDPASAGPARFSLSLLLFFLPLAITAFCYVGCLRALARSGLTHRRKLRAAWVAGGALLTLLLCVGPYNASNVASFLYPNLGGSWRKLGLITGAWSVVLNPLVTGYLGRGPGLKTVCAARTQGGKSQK

Mus musculus [5] = test: Antidiabetic activity in normal ICR mouse assessed as reduction in blood glucose level at 20 mg/kg, po administered 30 mins before oral glucose load by OGTT assay; format: functional, organism-based
[6] = Apparent volume of distribution during terminal phase in 12 hrs fasted Sprague-Dawley rat at 3 mg/kg, po administered as single dose measured up to 24 hrs by LC-PDA-MS/MS analysis; format: ADME, organism-based; details: in vivo
Mus musculus [7] = test: Antidiabetic activity in normal ICR mouse assessed as reduction in blood glucose AUC (0 to 120 mins) at 20 mg/kg, po administered 30 mins before oral glucose load by OGTT assay; format: functional, organism-based
Mus musculus [8] = test: Induction of hypoglycemia in fasting normal ICR mouse assessed as reduction in blood glucose level at 60 mg/kg, po measured up to 3 hrs post dose; format: organism-based; details: in vivo
Mus musculus [9] = test: Induction of hypoglycemia in fasting normal ICR mouse assessed as reduction in blood glucose level at 15 mg/kg, po measured up to 3 hrs post dose; format: organism-based; details: in vivo

Compound	t1/2 [1] [h]	AUC [2] [ng·h/mL]	Cmax [3] [ng/mL]	EC50 [4] [nM]	Activity (Mus musculus [5])	Activity (Mus musculus [5]; tested as the 2H-labelled form)	Vz/F [6] [L/kg]	Activity (Mus musculus [7])	Activity (Mus musculus [7]; tested as the 2H-labelled form)	Activity (Mus musculus [8])	Activity (Mus musculus [9])
Cc1noc(C)c1-c1cccc(COc2ccc(CCC(=O)O)c(F)c2)c1	1.75	14063.25	1730	32.5	inactive	Active	0.074	inactive	Active		
[2H]C([2H])(Cc1ccc(OCc2cccc(-c3c(C)noc3C)c2)cc1F)C(=O)O	3.14	46492.43	2910	37.4			0.049			Non-Toxic	
COc1ccc(Cl)cc1C(=O)NCCc1ccc(S(=O)(=O)NC(=O)NC2CCCCC2)cc1 [GLYBURIDE]											Toxic
[2H]C([2H])(Cc1ccc(OCc2cccc(-c3c(C)noc3C)c2)cc1)C(=O)O	2.58	31694.16	2360	28.9			0.057				
